From patent publication EP0548798A1, “Antiviral agent” (SANWA KAGAKU KENKYUSHO CO., LTD., priority 1991, dated 1993)
Read-outs that look alike come from different tables or passages of the source.

What was measured:
[1] = tested on: herpes simplex virus type 1 (Miyama strain); assay: Antiviral activity against HSV-1 in vitro, inhibition of virus-induced CPE in GMK cells (Test Example 2); type: cell-based, HSV-1 (Miyama strain); conditions: 0.5% fetal bovine serum
Description: (§1) Confluent GMK cells (derived from green monkey kidney) in 96-well plates were infected with HSV-1 (Miyama strain) in the presence of various concentrations of test compounds. After incubation, virus-induced cytopathic effect (CPE), inhibitory effect of CPE by the test compound and cytotoxicity were microscopically observed. The virus titer (TCID₅₀) was determined from CPE of virus infected culture. Ancivirus effects of test compounds were calculated from TCID₅₀ values of test compound treated and control cultures and represented by ΔTCID₅₀(log₁₀). Test compounds were dissolved in MEM medium, ethanol or DMSO to 10 mg/ml, and diluted with MEM medium supplemented with 0.5% fetal bovine serum.

GMK cells [2] = assay: Cytotoxicity observed microscopically in GMK cells (Test Example 2); type: cell-based, green monkey; set-up: key: -: no cytotoxicity; ±: slight cytotoxicity; +: cytotoxicity with observable antiviral effect; conditions: in parentheses
Description: as §1
In Table 4, parentheses indicate the cytotoxicity of these compounds. (-), (±) and (+) indicate no cytotoxicity, slight cytotoxicity and cytotoxicity with observable antiviral effect, respectively.

[3] = tested on: herpes simplex virus type 1 (Miyama strain); assay: Antiviral activity against HSV-1 in vitro, inhibition of virus-induced CPE in GMK cells (Test Example 1); type: cell-based, HSV-1 (Miyama strain)
Description: as §1, with “After incubation, virus-induced cytopathic effect (CPE), inhibitory effect of CPE by the test compound and cytotoxicity were microscopically observed.” left out, “Antivirus” for “Ancivirus”, “1%” for “0.5%”, “bovineserum.” for “bovine serum.”

GMK cells [4] = assay: Cytotoxicity observed microscopically in GMK cells (Test Example 1); type: cell-based, green monkey
Description: as §1, with “After incubation, virus-induced cytopathic effect (CPE), inhibitory effect of CPE by the test compound and cytotoxicity were microscopically observed.” left out, “Antivirus” for “Ancivirus”, “1%” for “0.5%”, “bovineserum.” for “bovine serum.”
In Table 1, parentheses indicate the cytotoxicity of these compounds. (-) and (±) indicate no cytotoxicity and slight cytotoxicity, respectively.

HSV-1 (Miyama strain) = assay: Anti HSV-1 activity in vivo, intraperitoneally infected mice; set-up: species or system Male BALB/c mice; conditions: 322 PFU (10LD₅₀) HSV-1
Description: Male BALB/c mice (5 weeks of age) were intraperitoneally infected with 322 PFU (plaque forming unit, 10LD₅₀) of HSV-1 (Miyama strain). Twenty one days later, survival ratio and mean survival days were evaluated. Test compounds were dispersed in 5% arabic gum/physiological saline, and intraperitoneally administered at 10 mg and 20 mg/kg. Treatment began just after virus inoculation and continued for 5 days.

HIV = assay: Inhibition of HIV-induced cytopathogenicity in MT-4 cells; type: cell-based; conditions: Human immunodeficiency virus 1; MT-4 cells; minimum inhibitory concentration; read-out: Anti-HIV Activity (MIC, µg/ml)
Description: MT-4 cells (lymphoma derived from human T cell leukemia) in 96-well plate were infected with […] in the presence of various concentrations of test compounds. After incubation, inhibitory effect of HIV-induced CPE by the test compounds and cytotoxicity were microscopically observed. […]
Further, since the compounds of the present invention have a chemical structure different from the conventional antiviral substances, it is useful for the prevention or treatment of the infectious diseases caused by viruses resistant to the conventional antiviral substances.

MT-4 cells = assay: Minimum cytotoxic concentration in MT-4 cells; type: cell-based, human; conditions: MT-4 cells; in parentheses
Description: MT-4 cells (lymphoma derived from human T cell leukemia) in 96-well plate were infected with […] in the presence of various concentrations of test compounds. After incubation, inhibitory effect of HIV-induced CPE by the test compounds and cytotoxicity were microscopically observed. […] TABLE 6 In Table 6, parentheses indicate the minimum cytotoxic concentration of test compounds.

[5] = Human alphaherpesvirus 1, 10 µg/ml, GMK cells, 1% fetal bovine serum, read-out: Antiviral Activity (ΔTCID₅₀(log₁₀))
[6] = 10 µg/ml, GMK cells, in parentheses
[7] = 10 µg/ml, GMK cells, 1% fetal bovine serum
[8] = 10 mg/kg intraperitoneally for 5 days
[9] = 20 mg/kg intraperitoneally for 5 days

In the case of “2-[4-(2-Trifluoromethylphenyl)-1-piperazinyl]-7-(2-deoxy-α-and β-D-ribofuranosyl)hypoxanthine and 2-[4-(2-Trifluromethylphenyl)-1-piperazinyl]-9-(2-deoxy-α- and β-D-ribofuranosyl)hypoxanthine [Compound of Example 21]”, the “Antiviral Activity (ΔTCID₅₀(log₁₀))” value ([1]; 10 µg/ml) is reported as 1.00 log₁₀ and the cytotoxicity (GMK cells [2]; 10 µg/ml) is reported as “-”.
`O=C(CN1CCCC1=O)N1CCN(c2ccccc2Cl)CC1` [Compound of Example 1, 1-(2-Chlorophenyl)-4-(2-pyrrolidon-1-yl)acetylpiperazine] was tested, and the log reduction at 10 µg/mL [3, 5] was 0.17 and the cytotoxicity (GMK cells [4]; [6]) was “-”.
For `CC(=O)Oc1ccccc1C(=O)N1CCN(c2ccccc2Cl)CC1` [Compound of Example 2, 1-(2-Acetoxybenzoyl)-4-(2-chlorophenyl)piperazine], the log reduction at 10 µg/mL [3, 5] was 0.5 and the cytotoxicity (GMK cells [4]; [6]) was “-”.
In the case of `O=C(c1ccccc1O)N1CCN(c2ccccc2Cl)CC1` [Compound of Example 3, 1-(2-Chlorophenyl)-4-(2-hydroxybenzoyl)piperazine], the log reduction at 10 µg/mL [3, 5] is reported as 0.83 and the cytotoxicity (GMK cells [4]; [6]) is reported as “-”.
For `O=C(CC12CCCN1CCC2)N1CCN(c2ccccc2Cl)CC1` [Compound of Example 4, 1-(1-Azabicyclo[3.3.0]octan-5-yl)acetyl-4-(2-chlorophenyl)piperazine], the “Antiviral Activity (ΔTCID₅₀(log₁₀))” value [3, 7] was 0.66 log₁₀.
With `CCn1cc(C(=O)O)c(=O)c2cc(F)c(N3CCN(c4ccccc4Cl)CC3)cc21` [Compound of Example 5, 7-[4-(2-Chlorophenyl)-1-piperazinyl]-1-ethyl-6-fluoro-1,4-dihydro-4-oxoquinoline-3-carboxylic acid] the log reduction at 5 µg/mL ([3]; Human alphaherpesvirus 1, 5 µg/ml, GMK cells, 1% fetal bovine serum, read-out: Antiviral Activity (ΔTCID₅₀(log₁₀))) was greater than 2.83, the log reduction at 10 µg/mL [3, 5] was greater than 2.83 and the cytotoxicity (GMK cells [4]; 5 µg/ml, GMK cells, in parentheses) was “-”. For the same molecule, the cytotoxicity (GMK cells [4]; [6]) was “±”, the “Mean Survival Days” value (HSV-1 (Miyama strain); [8]) was 16.8 ± 1.6 days and the “Survival Ratio at 21 days (%)” value (HSV-1 (Miyama strain); [8]) was 40%. For the same molecule, the “Mean Survival Days” value (HSV-1 (Miyama strain); [9]) was 18.7 ± 1.2 days and the “Survival Ratio at 21 days (%)” value (HSV-1 (Miyama strain); [9]) was 70%.
`CS(=O)(=O)N1CCN(c2ccccc2Cl)CC1` [Compound of Example 6, 1-(2-Chlorophenyl)-4-methylsulfonylpiperazine] was tested, and the log reduction at 10 µg/mL [3, 5] was 0.17 and the cytotoxicity (GMK cells [4]; [6]) was “-”.
With `CCCCCCCCCCCCCCCCCC(=O)N1CCN(c2ccccc2Cl)CC1` [Compound of Example 7, 1-(2-Chlorophenyl)-4-octadecanoylpiperazine] the log reduction at 10 µg/mL [3, 5] was 0.17 and the cytotoxicity (GMK cells [4]; [6]) was “-”.
In the case of `C[C@H](CCC(=O)N1CCN(c2ccccc2Cl)CC1)[C@H]1CC[C@H]2[C@@H]3CC[C@@H]4CCCC[C@]4(C)[C@H]3CC[C@]12C` [Compound of Example 10, 1-(2-Chlorophenyl)-4-(5β-cholan-24-oyl)piperazine], the log reduction at 10 µg/mL [3, 5] is reported as 0.17 and the cytotoxicity (GMK cells [4]; green monkey, 10 µg/ml) is reported as “-”.
`NS(=O)(=O)c1ccc(N2CCN(c3ccccc3Cl)CC2)cc1` [Compound of Example 11, 1-(4-Aminosulfonylphenyl)-4-(2-chlorophenyl)piperazine] was tested, and the log reduction at 10 µg/mL [3, 5] was 1.5 and the cytotoxicity (GMK cells [4]; [6]) was “-”.
For `CCN1CCN(c2ccccc2Cl)CC1` [Compound of Example 12, 1-(2-Chlorophenyl)-4-ethylpiperazine], the log reduction at 10 µg/mL ([3]; Human alphaherpesvirus 1, GMK, read-out: Antiviral Activity (ΔTCID₅₀(log₁₀))) was 0.33 and the cytotoxicity (GMK cells [4]; [6]) was “-”.
With `CC(=O)N1CCN(c2ccccc2Cl)CC1` [Compound of Example 13, 1-Acetyl-4-(2-chlorophenyl)piperazine] the log reduction at 10 µg/mL [3, 5] was 0 and the cytotoxicity (GMK cells [4]; [6]) was “-”.
With `CC1(C)[C@@H](O)CC[C@]2(C)[C@H]3CC=C4[C@@H]5C[C@@](C)(C(=O)N6CCN(c7ccccc7Cl)CC6)CC[C@]5(C)CC[C@@]4(C)[C@]3(C)CC[C@@H]12` [Compound of Example 15, 1-(3β-Hydroxy-18β-olean-12-en-30-oyl)-4-(2-chlorophenyl)piperazine] the “Antiviral Activity (ΔTCID₅₀(log₁₀))” value [3, 7] was greater than 2.00 log₁₀.
`CCCCCCCC(=O)N1CCN(c2ccccc2C(F)(F)F)CC1` [Compound of Example 16, 1-(2-Trifluoromethylphenyl)-4-octanoylpiperazine] was tested, and the “Antiviral Activity (ΔTCID₅₀(log₁₀))” value ([1]; 5 µg/ml) was 2.16 log₁₀, the “Antiviral Activity (ΔTCID₅₀(log₁₀))” value ([1]; 10 µg/ml) was greater than 3.00 log₁₀ and the cytotoxicity (GMK cells [2]; 5 µg/ml) was “-”. For the same molecule, the cytotoxicity (GMK cells [2]; 10 µg/ml) was “+”, the MIC (HIV) was greater than 63 µg/mL and the minimum cytotoxic concentration (MT-4 cells) was 125 µg/mL.
In the case of `CCCCC/C=C\C/C=C\CCCCCCCC(=O)N1CCN(c2ccccc2C(F)(F)F)CC1` [Compound of Example 17, 1-(2-Trifluoromethylphenyl)-4-[(Z,Z)-9,12-octadecadienoyl]piperazine], the “Antiviral Activity (ΔTCID₅₀(log₁₀))” value ([1]; 10 µg/ml) is reported as 1.56 log₁₀ and the cytotoxicity (GMK cells [2]; 10 µg/ml) is reported as “-”.
For `CC1(C)[C@@H](O)CC[C@]2(C)[C@H]3CC=C4[C@@H]5C[C@@](C)(C(=O)N6CCN(c7ccccc7C(F)(F)F)CC6)CC[C@]5(C)CC[C@@]4(C)[C@]3(C)CC[C@@H]12` [Compound of Example 18, 4-(2-Trifluoromethylphenyl)-1-(3β-hydroxy-18β-olean-12-en-30-oyl)piperazine], the “Antiviral Activity (ΔTCID₅₀(log₁₀))” value ([1]; 10 µg/ml) was 1.67 log₁₀ and the cytotoxicity (GMK cells [2]; 10 µg/ml) was “-”.
In the case of `O=c1[nH]c(N2CCN(c3ccccc3C(F)(F)F)CC2)nc2nc[nH]c12` [Compound of Example 20, 2-[4-(2-Trifluoromethylphenyl)-1-piperazinyl]hypoxanthine], the “Antiviral Activity (ΔTCID₅₀(log₁₀))” value ([1]; 5 µg/ml) is reported as 1.66 log₁₀, the “Antiviral Activity (ΔTCID₅₀(log₁₀))” value ([1]; 10 µg/ml) is reported as greater than 2.83 log₁₀ and the cytotoxicity (GMK cells [2]; 5 µg/ml) is reported as “-”. The cytotoxicity (GMK cells [2]; 10 µg/ml) was “±”.
In the case of `COc1ccc2[nH]c(C(=O)N3CCN(c4ccccc4C(F)(F)F)CC3)cc2c1` [Compound of Example 22, 1-(5-Methoxyindolyl-2-carbonyl)-4-(2-trifluoromethyl)piperazine], the “Antiviral Activity (ΔTCID₅₀(log₁₀))” value ([1]; 10 µg/ml) is reported as 0.64 log₁₀ and the cytotoxicity (GMK cells [2]; 10 µg/ml) is reported as “-”.
In the case of `CCn1cc(C(=O)O)c(=O)c2cc(F)c(N3CCN(c4ccccc4C(F)(F)F)CC3)cc21` [Compound of Example 23, 1-Ethyl-6-fluoro-7-[4-(2-trifluoromethylphenyl)-1-piperazinyl]-1,4-dihydro-4-oxoquinoline-3-carboxylic acid], the “Antiviral Activity (ΔTCID₅₀(log₁₀))” value ([1]; 5 µg/ml) is reported as greater than 3.17 log₁₀, the “Antiviral Activity (ΔTCID₅₀(log₁₀))” value ([1]; 10 µg/ml) is reported as greater than 3.17 log₁₀ and the cytotoxicity (GMK cells [2]; 5 µg/ml) is reported as “±”. The cytotoxicity (GMK cells [2]; 10 µg/ml) was “+”.
With `Cc1cc(O)c2c(=O)c(C)c(-c3ccc(OC(=O)CN4CCN(c5ccccc5C(F)(F)F)CC4)cc3)oc2c1` [Compound of Example 24, 2-[4-(4-(2-Trifluoromethylphenyl)-1-piperazinylacetoxy)phenyl]-5-hydroxy-3,7-dimethyl-4H-1-benzopyran-4-one] the “Antiviral Activity (ΔTCID₅₀(log₁₀))” value ([1]; 10 µg/ml) was 0.33 log₁₀ and the cytotoxicity (GMK cells [2]; 10 µg/ml) was “-”.
In the case of `CC[C@@]12C=C(C(=O)NCCN3CCN(c4ccccc4OC)CC3)n3c4c(c5ccccc53)CCN(CCC1)[C@H]42` [Compound of Example 25, N-[4-(2-Methoxyphenyl)piperazine-1-yl]ethyl-(3α,16α)-eburunamenine-14-caboxamide], the “Antiviral Activity (ΔTCID₅₀(log₁₀))” value ([1]; 5 µg/ml) is reported as 0.67 log₁₀, the “Antiviral Activity (ΔTCID₅₀(log₁₀))” value ([1]; 10 µg/ml) is reported as 2.27 log₁₀ and the cytotoxicity (GMK cells [2]; 5 µg/ml) is reported as “-”. For the same molecule, the cytotoxicity (GMK cells [2]; 10 µg/ml) was “-”.
With `CC[C@@]12C=C(C(=O)NCCN3CCN(c4ccccc4Cl)CC3)n3c4c(c5ccccc53)CCN(CCC1)[C@H]42` [Compound of Example 26, N-[4-(2-Chlorophenyl)piperazine-1-yl]ethyl-(3α,16α)-eburunamenine-14-caboxamide] the “Antiviral Activity (ΔTCID₅₀(log₁₀))” value ([1]; 5 µg/ml) was 2.00 log₁₀, the “Antiviral Activity (ΔTCID₅₀(log₁₀))” value ([1]; 10 µg/ml) was greater than 3.17 log₁₀ and the cytotoxicity (GMK cells [2]; 5 µg/ml) was “-”. The cytotoxicity (GMK cells [2]; 10 µg/ml) was “+”.
